The source made the active and inactive calls. The rule behind the calls is not given here.
Key:
[1] = Drug level in dog hepatocytes assessed as compound abundance level at 10 uM incubated for 4 hrs by UV chromatography; format: ADME, cell-based, Canis lupus familiaris, Hepatocyte
[2] = Drug level in monkey hepatocytes assessed as compound abundance level at 10 uM incubated for 4 hrs by UV chromatography; format: ADME, cell-based, Macaca mulatta, Hepatocyte; conditions: rhesus monkey
[3] = Drug level in rat hepatocytes assessed as compound abundance level at 10 uM incubated for 4 hrs by UV chromatography; format: ADME, cell-based, Hepatocyte
Leishmania donovani [4] = test: Antiparasitic activity against Leishmania donovani MHOM/ET/67/HU3 (ATCC) infected in primary BALB/c mouse peritoneal macrophages assessed as reduction in parasite proliferation incubated for 120 hrs by SYBR Green I staining based assay; format: functional, organism-based; conditions: Macrophage
[5] = Drug level in human hepatocytes assessed as compound abundance level at 10 uM incubated for 4 hrs by UV chromatography; format: ADME, cell-based, Hepatocyte
in vitro [6] = conditions: rat, liver microsomes
in vitro [7] = conditions: mouse, liver microsomes
Description: Metabolic stability in mouse liver microsomes assessed as hepatic extraction ratio after 1 hr by LC-MS/MS analysis

in vitro [8] = conditions: rat, liver microsomes; remark: listed apart in the source
Leishmania tarentolae [9] = test: Inhibition of chymotrypsin-like activity of Leishmania tarentolae proteasome beta 4
Leishmania tarentolae [10] = test: Inhibition of chymotrypsin-like activity of Leishmania tarentolae proteasome beta 4 F24L mutant
[11] = Drug uptake in beagle dog at 10 mg/kg, po measured up to 24 hrs relative to LXE408; format: ADME, organism-based, Canis lupus familiaris; conditions: in vivo
[12] = Drug level in mouse hepatocytes assessed as compound abundance level at 10 uM incubated for 4 hrs by UV chromatography; format: ADME, cell-based, Hepatocyte
Leishmania donovani [13] = test: Antiparasitic activity against Leishmania donovani MHOM/ET/67/HU3 (ATCC) infected in BALB/c mouse model of visceral leishmaniasis assessed as parasite burden in liver at 12 mg/kg, po QD for 8 days by qPCR analysis (reference value: 100%); format: functional; conditions: time 8 day
Leishmania donovani [14] = test: Antiparasitic activity against Leishmania donovani MHOM/ET/67/HU3 (ATCC) infected in BALB/c mouse model of visceral leishmaniasis assessed as reduction in parasite burden in liver at 12 mg/kg, po QD for 8 days by qPCR analysis relative to control; format: functional, organism-based; conditions: time 8.0 day
in vitro [15] = conditions: rat, liver microsomes; remark: listed apart in the source
Description: Metabolic stability in rat liver microsomes assessed as hepatic extraction ratio after 1 hr by LC-MS/MS analysis

Cytochrome P450 2D15 = target: T1, Cytochrome P450 2D15 (Canis lupus familiaris, UniProt Q29473); test: Drug metabolism assessed as dog CYP2D15-mediated N-(4-fluoro-3-(6-(3-methylpyri din-2-yl)-[1,2,4]triazolo[1,5- a]pyrimidin-2-yl)phenyl)-2-(hy droxymethyl)-4-methyloxazole-5 -carboxamide formation; format: ADME; conditions: recombinant enzyme
T1 sequence (Q29473 whole entry): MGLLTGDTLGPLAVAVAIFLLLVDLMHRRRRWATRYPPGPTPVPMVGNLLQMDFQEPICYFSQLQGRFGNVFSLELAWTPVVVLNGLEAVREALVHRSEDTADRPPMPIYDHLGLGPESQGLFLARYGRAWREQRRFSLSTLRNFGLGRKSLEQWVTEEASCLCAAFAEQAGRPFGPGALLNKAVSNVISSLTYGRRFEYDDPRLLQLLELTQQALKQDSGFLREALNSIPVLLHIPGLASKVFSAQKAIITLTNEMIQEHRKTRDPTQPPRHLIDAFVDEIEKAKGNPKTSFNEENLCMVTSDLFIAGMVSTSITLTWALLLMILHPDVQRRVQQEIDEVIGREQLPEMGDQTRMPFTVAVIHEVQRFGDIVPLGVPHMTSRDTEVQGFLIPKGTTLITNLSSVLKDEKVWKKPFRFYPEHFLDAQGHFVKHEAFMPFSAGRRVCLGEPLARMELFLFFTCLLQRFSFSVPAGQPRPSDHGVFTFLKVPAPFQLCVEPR

Leishmania donovani [16] = test: Antiparasitic activity against Leishmania donovani MHOM/ET/67/HU3 (ATCC) infected in BALB/c mouse model of visceral leishmaniasis assessed as parasite burden in liver at 10 mg/kg, po BID for 8 days by qPCR analysis (reference value: 100%); format: functional; conditions: time 8 day
[17] = Genotoxicity in Salmonella typhimurium by Ames test; format: toxicity; conditions: salmonella enterica subsp. enterica serovar typhimurium
Cytochrome P450 1A2 = target: T2, Cytochrome P450 1A2 (Homo sapiens, UniProt P05177); test: Drug metabolism assessed as human CYP1A2-mediated N-(4-fluoro-3-(6-(3-methylpyri din-2-yl)-[1,2,4]triazolo[1,5- a]pyrimidin-2-yl)phenyl)-2-(hy droxymethyl)-4-methyloxazole-5 -carboxamide formation; format: ADME; conditions: recombinant enzyme
T2 sequence (P05177 whole entry): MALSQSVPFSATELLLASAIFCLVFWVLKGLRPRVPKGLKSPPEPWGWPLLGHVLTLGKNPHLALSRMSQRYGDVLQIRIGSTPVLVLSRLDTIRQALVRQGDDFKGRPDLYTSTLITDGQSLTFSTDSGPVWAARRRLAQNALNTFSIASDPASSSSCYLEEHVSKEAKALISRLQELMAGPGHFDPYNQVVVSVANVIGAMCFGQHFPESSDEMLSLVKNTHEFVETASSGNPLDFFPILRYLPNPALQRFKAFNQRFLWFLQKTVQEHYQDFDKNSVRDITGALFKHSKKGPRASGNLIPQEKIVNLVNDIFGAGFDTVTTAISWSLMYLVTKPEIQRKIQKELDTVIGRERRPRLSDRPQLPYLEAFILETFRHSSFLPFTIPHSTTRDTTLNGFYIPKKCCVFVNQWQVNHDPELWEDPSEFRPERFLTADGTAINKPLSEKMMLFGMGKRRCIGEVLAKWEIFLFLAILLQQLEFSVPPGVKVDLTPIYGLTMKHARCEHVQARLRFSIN

Leishmania major = test: Antiparasitic activity against Leishmania major MHOM/IR/-/173 promastigotes infected in BALB/c mouse model of cutaneous leishmaniasis assessed as healing of parasite-induced skin lesions at 20 mg/kg, po BID for 10 days; format: functional, organism-based; conditions: time 10.0 day
Leishmania donovani [18] = test: Antiparasitic activity against Leishmania donovani MHOM/ET/67/HU3 (ATCC) infected in BALB/c mouse model of visceral leishmaniasis assessed as parasite burden in liver at 0.3 mg/kg, po BID for 8 days by qPCR analysis (reference value: 100%); format: functional; conditions: time 8 day
Cytochrome P450 3A4 = Cytochrome P450 3A4 (Homo sapiens, UniProt P08684); test: Drug metabolism assessed as human CYP3A4-mediated N-(4-fluoro-3-(6-(3-methylpyri din-2-yl)-[1,2,4]triazolo[1,5- a]pyrimidin-2-yl)phenyl)-2-(hy droxymethyl)-4-methyloxazole-5 -carboxamide formation; format: ADME; conditions: recombinant enzyme
Sequence of Cytochrome P450 3A4 (P08684 whole entry): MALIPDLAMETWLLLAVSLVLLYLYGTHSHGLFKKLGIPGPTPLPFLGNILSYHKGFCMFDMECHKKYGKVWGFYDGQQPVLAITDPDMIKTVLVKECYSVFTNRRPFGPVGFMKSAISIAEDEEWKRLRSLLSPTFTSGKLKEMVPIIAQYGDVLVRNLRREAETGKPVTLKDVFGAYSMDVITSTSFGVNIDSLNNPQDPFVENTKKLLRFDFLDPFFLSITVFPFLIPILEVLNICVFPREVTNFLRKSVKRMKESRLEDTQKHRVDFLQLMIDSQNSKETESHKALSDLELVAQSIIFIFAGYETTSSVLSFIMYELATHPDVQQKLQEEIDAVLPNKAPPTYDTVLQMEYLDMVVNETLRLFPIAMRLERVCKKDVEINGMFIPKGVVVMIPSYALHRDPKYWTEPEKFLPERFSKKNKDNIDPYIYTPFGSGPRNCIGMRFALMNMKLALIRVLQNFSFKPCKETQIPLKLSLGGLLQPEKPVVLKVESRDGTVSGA

[19] = Toxicity in rat by vivo micronucleus test
Leishmania donovani [20] = test: Antiparasitic activity against Leishmania donovani MHOM/ET/67/HU3 (ATCC) infected in BALB/c mouse model of visceral leishmaniasis assessed as parasite burden in liver at 1 mg/kg, po BID for 8 days by qPCR analysis (reference value: 100%); format: functional; conditions: time 8 day
Leishmania donovani [21] = test: Antiparasitic activity against Leishmania donovani MHOM/ET/67/HU3 (ATCC) infected in BALB/c mouse model of visceral leishmaniasis assessed as parasite burden in liver at 3 mg/kg, po BID for 8 days by qPCR analysis (reference value: 100%); format: functional; conditions: time 8 day
[22] = Drug concentration in plasma of Leishmania donovani MHOM/ET/67/HU3 (ATCC) infected BALB/c mouse model of visceral leishmaniasis at 0.3 to 10 mg/kg, po BID for 8 days; format: ADME, organism-based; conditions: in vivo, 192 h, dose 0.3-10 mg/kg, time 8 day
Cytochrome P450 2J2 = target: T3, Cytochrome P450 2J2 (Homo sapiens, UniProt P51589); test: Drug metabolism assessed as human CYP2j2-mediated N-(4-fluoro-3-(6-(3-methylpyri din-2-yl)-[1,2,4]triazolo[1,5- a]pyrimidin-2-yl)phenyl)-2-(hy droxymethyl)-4-methyloxazole-5 -carboxamide formation; format: ADME; conditions: recombinant enzyme
T3 sequence (P51589 whole entry): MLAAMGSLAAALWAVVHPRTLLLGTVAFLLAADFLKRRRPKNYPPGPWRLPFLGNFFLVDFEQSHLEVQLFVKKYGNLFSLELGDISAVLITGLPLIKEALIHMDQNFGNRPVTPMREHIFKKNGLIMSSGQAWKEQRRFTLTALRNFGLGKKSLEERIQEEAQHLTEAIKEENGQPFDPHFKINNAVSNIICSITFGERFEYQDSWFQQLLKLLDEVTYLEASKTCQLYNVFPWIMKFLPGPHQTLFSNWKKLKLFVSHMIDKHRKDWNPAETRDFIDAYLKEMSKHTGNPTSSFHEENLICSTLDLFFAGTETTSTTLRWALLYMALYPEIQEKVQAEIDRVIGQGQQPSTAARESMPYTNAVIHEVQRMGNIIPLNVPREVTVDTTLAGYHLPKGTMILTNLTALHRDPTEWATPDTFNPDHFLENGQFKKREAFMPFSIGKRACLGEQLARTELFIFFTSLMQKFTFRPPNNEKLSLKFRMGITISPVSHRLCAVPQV

[23] = Inhibition of chymotrypsin-like activity of Leishmania tarentolae proteasome beta 5 Y113F mutant
Cytochrome P450 1A1 = target: T4, Cytochrome P450 1A1 (Homo sapiens, UniProt P04798); test: Drug metabolism assessed as human CYP1A1-mediated N-(4-fluoro-3-(6-(3-methylpyri din-2-yl)-[1,2,4]triazolo[1,5- a]pyrimidin-2-yl)phenyl)-2-(hy droxymethyl)-4-methyloxazole-5 -carboxamide formation; format: ADME; conditions: recombinant enzyme
T4 sequence (P04798 whole entry): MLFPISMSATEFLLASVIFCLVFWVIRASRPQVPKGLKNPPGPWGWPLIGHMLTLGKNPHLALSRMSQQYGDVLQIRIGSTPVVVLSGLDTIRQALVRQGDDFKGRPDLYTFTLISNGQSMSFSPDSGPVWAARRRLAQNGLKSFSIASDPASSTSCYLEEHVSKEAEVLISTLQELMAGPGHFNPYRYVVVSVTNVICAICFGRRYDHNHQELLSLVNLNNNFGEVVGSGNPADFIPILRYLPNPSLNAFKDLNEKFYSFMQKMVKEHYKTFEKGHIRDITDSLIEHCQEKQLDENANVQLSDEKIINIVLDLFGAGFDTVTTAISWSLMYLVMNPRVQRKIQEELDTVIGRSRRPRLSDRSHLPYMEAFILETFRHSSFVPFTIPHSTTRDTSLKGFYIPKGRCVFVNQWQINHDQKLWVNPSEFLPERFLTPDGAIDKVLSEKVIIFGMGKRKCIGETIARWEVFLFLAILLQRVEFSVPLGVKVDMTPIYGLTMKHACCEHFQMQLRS

Leishmania tarentolae [24] = test: Noncompetitive inhibition of chymotrypsin-like activity of Leishmania tarentolae proteasome beta 5 using fluorogenic peptide Suc-LLVY-[Rh110]-[Dpro] as substrate

Cc1cccnc1-c1cnc2nc(-c3cc(NC(=O)c4oc(CO)nc4C)ccc3F)nn2c1
Drug uptake [1]: 25% | Drug uptake [2]: <= 25% | Drug uptake [3]: <= 25% | EC50 (Leishmania donovani [4]): > 5 µM | Drug uptake [5]: <= 25%

Cc1nc(C)c(C(=O)Nc2ccc(F)c(-c3nc4ncc(-c5ncccc5Cl)cn4n3)c2)o1
hepatic extraction ratio at 1 h (in vitro [6]): 0.21 | hepatic extraction ratio at 1 h (in vitro [7]): < 0.21 | hepatic extraction ratio at 1 h (in vitro [8]): < 0.21

CC(C)C[C@H](NC(=O)[C@H](Cc1ccccc1)NC(=O)c1cnccn1)B(O)O
inhibition (Leishmania tarentolae [9]): Active | inhibition (Leishmania tarentolae [10]): Active

Cc1nc(CO)c(C(=O)Nc2ccc(F)c(-c3nc4ncc(-c5ncccc5C)cn4n3)c2)o1
Drug uptake [1]: <= 25% | Drug uptake [2]: <= 25% | Drug uptake [3]: <= 25% | EC50 (Leishmania donovani [4]): > 5 µM | Drug uptake [5]: <= 25% | Drug uptake [11]: 2.3% | Drug uptake [12]: <= 25%

Cc1nc(C)c(C(=O)Nc2ccc(F)c(-c3nc4ncc(-c5ncccc5CO)cn4n3)c2)o1
Drug uptake [1]: <= 25% | Drug uptake [2]: <= 25% | Drug uptake [3]: <= 25% | Drug uptake [5]: <= 25% | Drug uptake [11]: 9.1% | Drug uptake [12]: <= 25%

CCCCCCCCCCCCCCCCOP(=O)([O-])OCC[N+](C)(C)C [MILTEFOSINE]
Activity (Leishmania donovani [13]): 4.2% | Activity (Leishmania donovani [14]): Active

Cc1nc(C)c(C(=O)Nc2ccc(F)c(-c3nc4ncc(-c5ncccc5C(F)F)cn4n3)c2)o1
hepatic extraction ratio at 1 h (in vitro [15]): < 0.18

Cc1nc(C)c(C(=O)Nc2ccc(F)c(-c3nc4ncc(-c5ncccc5C)cn4n3)c2)o1 [LXE-408]
Drug uptake [1]: > 75% | Drug uptake [2]: > 75% | Drug metabolism (Cytochrome P450 2D15): Metabolite_Detected | Activity (Leishmania donovani [16]): <0.16% | Activity [17]: Non-Toxic | Drug metabolism (Cytochrome P450 1A2): Metabolite_Detected | Activity (Leishmania major): Active | Activity (Leishmania donovani [18]): 85% | Drug uptake [3]: > 75% | Drug metabolism (Cytochrome P450 3A4): Metabolite_Detected | Activity [19]: Non-Toxic | Drug uptake [5]: > 75% | Activity (Leishmania donovani [20]): 5.1% | Activity (Leishmania donovani [21]): <0.2% | Drug uptake [12]: > 75% | Drug uptake [22]: Dose-dependent effect | Drug metabolism (Cytochrome P450 2J2): Metabolite_Detected | inhibition [23]: inactive | Drug metabolism (Cytochrome P450 1A1): Metabolite_Detected

Cc1nc(C)c(C(=O)Nc2ccc(F)c(-c3nc4ncc(-c5ccccn5)cn4n3)c2)o1
inhibition (Leishmania tarentolae [24]): Active

COc1cccnc1-c1cnc2nc(-c3cc(NC(=O)c4oc(C)nc4C)ccc3F)nn2c1
hepatic extraction ratio at 1 h (in vitro [6]): < 0.21

— ChEMBL document CHEMBL4665701, “Discovery and Characterization of Clinical Candidate LXE408 as a Kinetoplastid-Selective Proteasome Inhibitor for the Treatment of Leishmaniases” (J Med Chem, 2020)
